Measurements: publication PMC5435703 (Scientific Reports, 2017)
Values after ≈ are worked out from the molar mass of the structure shown. Read-outs that look alike come from different tables or passages of the source. Marks after values point to notes of the source that are not given here.

Key:
MRSA BAA-1707 [1] = assay: MIC broth microdilution assay; assay type: cell-based, Staphylococcus aureus
MRSA BAA-44 = assay: MIC broth microdilution assay; assay type: cell-based; conditions: Staphylococcus aureus; Table 1; read-out: MIC MRSA BAA-44
MRSA-1 = assay: MIC broth microdilution assay; assay type: cell-based, Staphylococcus aureus; conditions: for MIC: Staphylococcus aureus, MRSA
MRSE 35984 [2] = assay: MIC broth microdilution assay; assay type: cell-based, Staphylococcus epidermidis
VRE 700221 [3] = assay: MIC broth microdilution assay; assay type: cell-based, Enterococcus faecium; conditions: Enterococcus, VRE
MtB H37Ra = assay: MIC assay for Mycobacterium tuberculosis; assay type: cell-based; conditions: 168 h, seven days
[4] = LDH release assay for HeLa cytotoxicity; assay type: cell-based; conditions: human, HeLa cells; LDH release, 24 hours; tested at 25, 50 and 100 µM; read-out: HeLa Cytotox. IC50
MRSA BAA-1707 [5] = assay: MIC assay with metal(II) cation co-treatment; assay type: cell-based, Staphylococcus aureus
UV-Vis metal(II) binding = assay type: physicochemical; conditions: UV-Vis kinetics, compared to HP 1
Procedure: The rates of halogenated phenazine-copper(II) complex formation were independently evaluated via UV-Vis spectrometry following addition of 0.5 equivalents copper(II) sulfate to stirring solutions of HP (10 mM, 4 mL) in dimethyl sulfoxide. Spectral scanning was performed from 200 to 800 nm in 2 nm increments. The disappearance of HPs 1, 17 and 22 was observed over the indicated time points. The halogenated phenazine-copper(II) complex formation yielded a loss in absorbance due to precipitation.

MRSA BAA-1707 [6] = assay: Calgary Biofilm Device (CBD) MBC/MBEC assay; assay type: cell-based, Staphylococcus aureus
VRE 700221 [7] = assay: Calgary Biofilm Device (CBD) MBC/MBEC assay; assay type: cell-based, Enterococcus faecium; conditions: for MBC: read-out: VRE 700221 MBC
four MRSA isolates = assay: MIC assays, panel of four MRSA isolates; assay type: cell-based; conditions: Staphylococcus aureus, range over isolates, read-out: MIC against a panel of four MRSA isolates
[8] = Hemolysis assay with red blood cells; conditions: human, pH 7.2
MRSA-2 = assay: MIC broth microdilution assay; assay type: cell-based, Staphylococcus aureus; conditions: Table 1, read-out: MIC MRSA-2
MRSE 35984 [9] = assay: Calgary Biofilm Device (CBD) MBC/MBEC assay; assay type: cell-based, Staphylococcus epidermidis; conditions: for MBC: read-out: MRSE 35984 MBC
MRSA, MRSE and VRE = assay: MIC assays, summary over strains; assay type: cell-based; conditions: read-out: MIC against all strains tested against
[10] = Staphylococcus aureus, Table 1, three independent experiments, read-out: MIC MRSA BAA-1707
[11] = Staphylococcus aureus, Table 3, read-out: MRSA BAA-1707 MIC
[12] = Table 1, three independent experiments
[13] = single plate shown as picture, read-out: MIC (µM), MIC Assay Against MRSA-1
[14] = Staphylococcus aureus, Table 2, MRSA BAA-1707, no metal(II) cation added, read-out: MIC
[15] = Staphylococcus aureus, copper(II) at 200 µM co-treatment, read-out: MIC w/Cu2+
[16] = Staphylococcus aureus, iron(II) at 200 µM co-treatment, read-out: MIC w/Fe2+
[17] = Staphylococcus aureus, magnesium(II) at 200 µM co-treatment, read-out: MIC w/Mg2+
[18] = Staphylococcus aureus, zinc(II) at 200 µM co-treatment, read-out: MIC w/Zn2+

Molecule `Oc1c(Br)cc(Br)c2nc3c(Cl)cccc3nc12` [HP 21] has an MIC (MRSA BAA-1707 [1]; [10]) of 0.05 to 0.3 µM (≈ 0.0194 to 0.117 µg/mL), an MIC (MRSA BAA-1707 [1]; [11]) of 0.08 µM (≈ 0.0311 µg/mL) and an MIC (MRSA BAA-1707 [1]; Staphylococcus aureus, single plate shown as picture, read-out: MIC (µM), MIC Assay against MRSA BAA-1707) of 0.1 µM (≈ 0.0388 µg/mL). For the same molecule, the “MIC MRSA BAA-1707” value (MRSA BAA-1707 [1]; [12]) was 0.08^a µM, the MIC (MRSA BAA-44) was 0.59 µM (≈ 0.229 µg/mL) and the MIC (MRSA-1; Table 1, read-out: MIC MRSA-1) was at most 0.1 µM. For the same molecule, the MIC (MRSA-1; [13]) was 0.1 µM (≈ 0.0388 µg/mL), the MIC (MRSE 35984 [2]; Staphylococcus epidermidis, MRSE, Table 3, read-out: MRSE 35984 MIC) was 0.3 µM (≈ 0.117 µg/mL) and the MIC (MRSE 35984 [2]; Staphylococcus epidermidis, MRSE, single plate shown as picture, read-out: MIC (µM), MIC Assay Against MRSE 35984) was 0.2 µM (≈ 0.0777 µg/mL). The MIC (VRE 700221 [3]; Table 3, read-out: VRE 700221 MIC) was 1.56 µM (≈ 0.606 µg/mL), the MIC (VRE 700221 [3]; single plate shown as picture, read-out: MIC (µM), MIC Assay Against VRE 700221) was 1.56 µM (≈ 0.606 µg/mL) and the MIC (MtB H37Ra) was 50 µM (≈ 19.4 µg/mL). It also gave an IC50 at 24 h [4] of over 100 µM, an MIC (MRSA BAA-1707 [5]; Staphylococcus aureus, Fe(II) co-treatment plate, lanes without metal, read-out: MIC) of 0.1 µM and an MIC (MRSA BAA-1707 [5]; [14]) of 0.1 µM. The MIC (MRSA BAA-1707 [5]; Staphylococcus aureus, Zn(II) extended plate assay, lanes without metal, read-out: MIC) was 0.1 µM, the MIC (MRSA BAA-1707 [5]; [15]) was 6.25 µM and the MIC (MRSA BAA-1707 [5]; [16]) was 0.59 µM. For the same molecule, the MIC (MRSA BAA-1707 [5]; [17]) was 0.15 µM, the MIC (MRSA BAA-1707 [5]; [18]) was 0.15 µM and the MIC (MRSA BAA-1707 [5]; extended plate assay, 200 µM Zn(II), read-out: MIC (µM) + Zn(II)) was 0.10 µM. The MIC (MRSA BAA-1707 [5]; single plate, 200 µM Fe(II), read-out: MIC (µM) + Fe(II)) was 0.78 µM, the “rate of copper(II) chelation” value (UV-Vis metal(II) binding) was “faster rate than HP 1” and the MBC (MRSA BAA-1707 [6]; Staphylococcus aureus, 24 h, CBD, planktonic killing, 24 hours treatment, read-out: MRSA BAA-1707 MBC) was 6.25 µM (≈ 2.43 µg/mL). For the same molecule, the MBC (MRSA BAA-1707 [6]; Staphylococcus aureus, 24 h, supplement page 27, second CBD plate, read-out: MRSA Planktonic Killing MBC) was 6.25 µM (≈ 2.43 µg/mL), the “VRE 700221 MBEC” value (VRE 700221 [7]; CBD, biofilm eradication) was 25/25 µM and the MBC (VRE 700221 [7]; Enterococcus, VRE, CBD, planktonic killing) was 25 µM (≈ 9.71 µg/mL). For the same molecule, the MIC (four MRSA isolates) was 0.05 to 0.59 µM (≈ 0.0194 to 0.229 µg/mL) and the hemolysis at 1 h, 200 µM [8] was at most 1%.

With `c1ccc(CN(CCN(Cc2ccccn2)Cc2ccccn2)Cc2ccccn2)nc1` [TPEN, reference compound] the “MIC MRSA BAA-1707” value (MRSA BAA-1707 [1]; [12]) was 46.9^a µM, the “MRSA BAA-1707 MIC” value (MRSA BAA-1707 [1]; Table 3) was 46.9^a µM and the “MIC MRSA-1” value (MRSA-1; Table 1) was 75^a µM. The MIC (MRSA-2) was 50 µM (≈ 21.2 µg/mL), the MIC (MRSE 35984 [2]; Table 1, read-out: MIC MRSE 35984) was 12.5 µM (≈ 5.31 µg/mL) and the MIC (MRSE 35984 [2]; Table 3, read-out: MRSE 35984 MIC) was 12.5 µM (≈ 5.31 µg/mL). For the same molecule, the MIC (MRSA BAA-1707 [5]; Table 2, MRSA BAA-1707, no metal(II) cation added) was 46.9^a µM, the MIC (MRSA BAA-1707 [5]; copper(II) at 200 µM co-treatment, read-out: MIC w/Cu2+) was 500 µM and the MIC (MRSA BAA-1707 [5]; iron(II) at 200 µM co-treatment, read-out: MIC w/Fe2+) was 125 µM. For the same molecule, the MIC (MRSA BAA-1707 [5]; magnesium(II) at 200 µM co-treatment, read-out: MIC w/Mg2+) was 62.5 µM, the MIC (MRSA BAA-1707 [5]; zinc(II) at 200 µM co-treatment, read-out: MIC w/Zn2+) was 250 µM and the MBC (MRSA BAA-1707 [6]; CBD, planktonic killing, 24 hours treatment, read-out: MRSA BAA-1707 MBC) was 375 µM (≈ 159 µg/mL). For the same molecule, the “MRSA-1707 Biofilm Eradication MBEC” value (MRSA BAA-1707 [6]; Figure 7A, single CBD plate) was over 2000 µM, the MBC (MRSA BAA-1707 [6]; Figure 7A, single CBD plate, read-out: MRSA-1707 Planktonic Eradication MBC) was 250 µM (≈ 106 µg/mL) and the “MRSA Biofilm Eradication MBEC” value (MRSA BAA-1707 [6]; supplement page 27, first CBD plate) was over 2000 µM. For the same molecule, the MBC (MRSA BAA-1707 [6]; supplement page 27, first CBD plate, read-out: MRSA Planktonic Killing MBC) was 250 µM (≈ 106 µg/mL), the “MRSE 35984 MBEC” value (MRSE 35984 [9]; CBD, biofilm eradication) was over 2000 µM and the MBC (MRSE 35984 [9]; CBD, planktonic killing) was 250 µM (≈ 106 µg/mL). For the same molecule, the “Hemolysis at 200 µM (%)” value (human red blood cells) was at most 1%.

Molecule `Oc1c(Br)cc(Br)c2nc3c(O)c(Br)cc(Br)c3nc12` [HP 15] has an MIC (MRSA BAA-1707 [1]; [10]) of over 50 µM, an MIC (MRSA BAA-1707 [1]; Table 1, three independent experiments, read-out: MIC MRSA BAA-1707) of over 50 µM and an MIC (MRSA-1; Table 1, read-out: MIC MRSA-1) of over 50 µM. The MIC (MRSA-1; [13]) was over 50 µM, the MIC (MRSA-2; Staphylococcus aureus, MRSA) was over 50 µM and the MIC (MRSE 35984 [2]; Staphylococcus epidermidis, MRSE, Table 1, read-out: MIC MRSE 35984) was over 50 µM. For the same molecule, the MIC (VRE 700221 [3]; Table 1, read-out: MIC VRE 700221) was over 50 µM and the MIC (MRSA, MRSE and VRE) was over 50 µM.

`O=C(O)CN(CCN(CC(=O)O)CC(=O)O)CC(=O)O` [EDTA, ethylenediaminetetraacetic acid, reference compound] showed an MIC (MRSA BAA-1707 [1]; [10]) of 25 µM (≈ 7.31 µg/mL), an MIC (MRSA BAA-1707 [1]; [11]) of 25 µM (≈ 7.31 µg/mL) and an MIC (MRSA-1; Table 1, read-out: MIC MRSA-1) of 12.5 µM (≈ 3.65 µg/mL). The MIC (MRSA BAA-1707 [5]; [14]) was 25 µM, the MIC (MRSA BAA-1707 [5]; [15]) was 50 µM and the MIC (MRSA BAA-1707 [5]; [16]) was 50 µM. For the same molecule, the MIC (MRSA BAA-1707 [5]; [17]) was 50 µM, the MIC (MRSA BAA-1707 [5]; [18]) was 50 µM and the MBC (MRSA BAA-1707 [6]; Staphylococcus aureus, 24 h, read-out: MRSA BAA-1707 MBC) was over 2000 µM. For the same molecule, the minimal effective concentration (MRSA BAA-1707 [6]; Staphylococcus aureus, 24 h, read-out: MRSA BAA-1707 MBEC) was over 2000 µM, the minimal effective concentration (MRSE 35984 [9]; Staphylococcus epidermidis, MRSE, 24 h, read-out: MRSE 35984 MBEC) was over 2000 µM and the MBC (MRSE 35984 [9]; Staphylococcus epidermidis, MRSE) was 1000 µM (≈ 292 µg/mL). For the same molecule, the minimal effective concentration (VRE 700221 [7]; Enterococcus, VRE, 24 h, read-out: VRE 700221 MBEC) was 93.8 µM, the MBC (VRE 700221 [7]; Enterococcus, VRE) was over 2000 µM and the “Hemolysis at 200 µM (%)” value (human red blood cells; human, 1 h, pH 7.2) was at most 1%.
